The text below walks through data of patent US20200405697A1, “Antitumor Agent” (Taiho Pharmaceutical Co., Ltd, priority 2017, published 2020).

The IC50 is the concentration at which inhibition is half-maximal.

The target in the assay is T1, human RNR (histidine tagged human M1 and human M2 proteins) (Homo sapiens, UniProt P23921).
T1 construct: made in house; host or cells: Escherichia coli
T1 sequence (P23921 1-792): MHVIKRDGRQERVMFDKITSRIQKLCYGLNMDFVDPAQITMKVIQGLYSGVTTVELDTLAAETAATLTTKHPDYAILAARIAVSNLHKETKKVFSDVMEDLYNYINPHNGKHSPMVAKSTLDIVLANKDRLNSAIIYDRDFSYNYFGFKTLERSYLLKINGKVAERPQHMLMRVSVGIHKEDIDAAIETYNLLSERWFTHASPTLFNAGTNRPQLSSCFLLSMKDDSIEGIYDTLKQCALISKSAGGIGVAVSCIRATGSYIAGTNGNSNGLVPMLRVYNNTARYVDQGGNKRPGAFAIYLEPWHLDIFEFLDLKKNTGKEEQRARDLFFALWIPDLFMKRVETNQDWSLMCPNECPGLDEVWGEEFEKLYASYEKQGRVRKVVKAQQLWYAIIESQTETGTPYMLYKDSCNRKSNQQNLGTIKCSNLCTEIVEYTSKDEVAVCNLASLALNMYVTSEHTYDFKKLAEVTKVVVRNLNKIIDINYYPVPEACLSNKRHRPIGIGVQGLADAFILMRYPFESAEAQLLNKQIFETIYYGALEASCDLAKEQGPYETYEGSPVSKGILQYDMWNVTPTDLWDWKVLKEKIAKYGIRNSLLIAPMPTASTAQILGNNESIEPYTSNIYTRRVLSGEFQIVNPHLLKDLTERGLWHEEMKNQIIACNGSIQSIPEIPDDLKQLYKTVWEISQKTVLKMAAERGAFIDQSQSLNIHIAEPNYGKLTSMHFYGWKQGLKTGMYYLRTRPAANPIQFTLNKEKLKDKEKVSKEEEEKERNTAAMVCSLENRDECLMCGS
Description: Human RNR inhibition effect (dCDP formation from CDP). Conditions: 10 μM CDP, 37° C. for 30 minutes, read-out: RNR inhibitory activity IC50. The class given is biochemical. Summed up: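 His-tagged human M1 (isoform 1) and N-terminal 59-aa-truncated M2 (isoform 2), E. coli-expressed, Ni-purified, preincubated 20 min with compound (1% DMSO). Reaction with 10 μM CDP, 2 mM ATP, 0.24 mM NADPH, 6 mM DTT, 4 mM Mg acetate, 100 mM KCl, 50 mM HEPES pH 7.2, 30 min at 37° C. dCDP formed quantified by reverse-phase HPLC after heat stop.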

The structures appear in SMILES notation.

Consider `COc1c(S(=O)(=O)N[C@H](c2n[nH]c(=O)o2)[C@H](C)c2c(F)ccc(C)c2C)ccc(Cl)c1C(C)OC(C)=O` (stereo partly drawn) [Example 144, 1-(6-chloro-3-(N-((1S,2R)-2-(6-fluoro-2,3-dimethylphenyl)-1-(5-oxo-4,5-dihydro-1,3,4-oxadiazol-2-yl)propyl)sulfamoyl)-2-methoxyphenyl)ethyl acetate], for which the IC50 amounted to 170 nM.

As to `Cc1ccc(F)c([C@@H](C)[C@H](NS(=O)(=O)c2ccc(Cl)cc2OCC(F)F)c2n[nH]c(=O)o2)c1C` [Example 145, 4-chloro-2-(2,2-difluoroethoxy)-N-((1S,2R)-2-(6-fluoro-2,3-dimethylphenyl)-1-(5-oxo-4,5-dihydro-1,3,4-oxadiazol-2-yl)propyl)benzenesulfonamide], the IC50 worked out at 440 nM.

On to `Cc1ccc(F)c([C@@H](C)[C@H](NS(=O)(=O)c2ccc(Cl)cc2OC(F)F)c2n[nH]c(=O)o2)c1C` [Example 146, 4-chloro-2-(difluoromethoxy)-N-((1S,2R)-2-(6-fluoro-2,3-dimethylphenyl)-1-(5-oxo-4,5-dihydro-1,3,4-oxadiazol-2-yl)propyl)benzenesulfonamide], for which the half-maximal inhibitory concentration (IC50) came to 260 nM.

For `CC(=O)c1cc(Cl)ccc1S(=O)(=O)N[C@H](c1n[nH]c(=O)o1)[C@H](C)c1c(F)ccc(C)c1C` [Example 147, 2-acetyl-4-chloro-N-((1S,2R)-2-(6-fluoro-2,3-dimethylphenyl)-1-(5-oxo-4,5-dihydro-1,3,4-oxadiazol-2-yl)propyl)benzenesulfonamide], the IC50 came to 270 nM.

Take `COc1nc(Cl)ccc1S(=O)(=O)N[C@H](c1n[nH]c(=O)o1)[C@H](C)c1c(F)ccc(C)c1C` [Example 148, 6-chloro-N-((1S,2R)-2-(6-fluoro-2,3-dimethylphenyl)-1-(5-oxo-4,5-dihydro-1,3,4-oxadiazol-2-yl)propyl)-2-methoxypyridine-3-sulfonamide]: the IC50 was 100 nM.

Regarding `Cc1ccc(S(=O)(=O)N[C@H](c2n[nH]c(=O)o2)[C@H](C)c2c(F)ccc(C)c2C)cc1` [Example 151, N-((1S,2R)-2-(6-fluoro-2,3-dimethylphenyl)-1-(5-oxo-4,5-dihydro-1,3,4-oxadiazol-2-yl)propyl)-4-methylbenzenesulfonamide], the 50% inhibitory concentration (IC50) was determined as 410 nM.

Take `Cc1ccc(F)c([C@@H](C)[C@H](NS(=O)(=O)c2cccc3[nH]ccc23)c2n[nH]c(=O)o2)c1C` [Example 152, N-((1S,2R)-2-(6-fluoro-2,3-dimethylphenyl)-1-(5-oxo-4,5-dihydro-1,3,4-oxadiazol-2-yl)propyl)-1H-indole-4-sulfonamide]: the IC50 is 710 nM.

`Cc1ccc(F)c([C@@H](C)[C@H](NS(=O)(=O)c2ccc(Cl)c3cccnc23)c2n[nH]c(=O)o2)c1C` [Example 153, 5-chloro-N-((1S,2R)-2-(6-fluoro-2,3-dimethylphenyl)-1-(5-oxo-4,5-dihydro-1,3,4-oxadiazol-2-yl)propyl)quinoline-8-sulfonamide]: the IC50 worked out at 110 nM.

Take `Cc1ccc(F)c([C@@H](C)[C@H](NS(=O)(=O)c2ccc(Cl)c(C(=O)N3CCC4(COC4)C3)n2)c2n[nH]c(=O)o2)c1C` [Example 155, 5-chloro-N-((1S,2R)-2-(6-fluoro-2,3-dimethylphenyl)-1-(5-oxo-4,5-dihydro-1,3,4-oxadiazol-2-yl)propyl)-6-(2-oxa-6-aza-spiro[3.4]octane-6-carbonyl)pyridine-2-sulfonamide]: the IC50 is 130 nM.

Consider `Cc1ccc(F)c([C@@H](C)[C@H](NS(=O)(=O)c2ccc(Cl)c(C(=O)N3CCC4(CC3)COC4)n2)c2n[nH]c(=O)o2)c1C` [Example 156, 5-chloro-N-((1S,2R)-2-(6-fluoro-2,3-dimethylphenyl)-1-(5-oxo-4,5-dihydro-1,3,4-oxadiazol-2-yl)propyl)-6-(2-oxa-7-azaspiro[3.5]nonane-7-carbonyl)pyridine-2-sulfonamide], for which the IC50 turned out to be 80 nM.

As for `CC(=O)NC1CCOc2c(S(=O)(=O)N[C@H](c3n[nH]c(=O)o3)[C@H](C)c3c(F)ccc(C)c3C)ccc(Cl)c21` (stereo partly drawn) [Example 157, N-(5-chloro-8-(N-((1S,2R)-2-(6-fluoro-2,3-dimethylphenyl)-1-(5-oxo-4,5-dihydro-1,3,4-oxadiazol-2-yl)propyl)sulfamoyl)chroman-4-yl)acetamide], the IC50 was 100 nM.

Take `Cc1ccc(F)c([C@@H](C)[C@H](NS(=O)(=O)c2ccc(Cl)s2)c2n[nH]c(=O)o2)c1C` [Example 158, 5-chloro-N-((1S,2R)-2-(6-fluoro-2,3-dimethylphenyl)-1-(5-oxo-4,5-dihydro-1,3,4-oxadiazol-2-yl)propyl)thiophene-2-sulfonamide]: the IC50 amounted to 450 nM.

On to `Cc1ccc(F)c([C@@H](C)[C@H](NS(=O)(=O)c2ccc(F)c3c2OCCC3=O)c2n[nH]c(=O)o2)c1C` [Example 159, 5-fluoro-N-((1S,2R)-2-(6-fluoro-2,3-dimethylphenyl)-1-(5-oxo-4,5-dihydro-1,3,4-oxadiazol-2-yl)propyl)-4-oxochroman-8-sulfonamide], for which the IC50 came out at 160 nM.

Consider `Cc1ccc(F)c([C@@H](C)[C@H](NS(=O)(=O)c2ccc(Cl)c(-c3nnn[nH]3)c2)c2n[nH]c(=O)o2)c1C` [Example 161, 4-chloro-N-((1S,2R)-2-(6-fluoro-2,3-dimethylphenyl)-1-(5-oxo-4,5-dihydro-1,3,4-oxadiazol-2-yl)propyl)-3-(1H-tetrazol-5-yl)benzenesulfonamide], for which the IC50 is 280 nM.

Regarding `Cc1ccc(F)c([C@@H](C)[C@H](NS(=O)(=O)c2ccc3c(c2)CC(=O)N3)c2n[nH]c(=O)o2)c1C` [Example 162, N-((1S,2R)-2-(6-fluoro-2,3-dimethylphenyl)-1-(5-oxo-4,5-dihydro-1,3,4-oxadiazol-2-yl)propyl)-2-oxoindoline-5-sulfonamide], the 50% inhibitory concentration (IC50) is 740 nM.

As to `Cc1ccc(F)c([C@@H](C)[C@H](NS(=O)(=O)c2cccc3c2OCCO3)c2n[nH]c(=O)o2)c1C` [Example 164, N-((1S,2R)-2-(6-fluoro-2,3-dimethylphenyl)-1-(5-oxo-4,5-dihydro-1,3,4-oxadiazol-2-yl)propyl)-2,3-dihydrobenzo[b][1,4]dioxin-5-sulfonamide], the IC50 stood at 330 nM.

As to `Cc1ccc(F)c([C@@H](C)[C@H](NS(=O)(=O)c2ccc3[nH]c(=O)[nH]c3c2)c2n[nH]c(=O)o2)c1C` [Example 165, N-((1S,2R)-2-(6-fluoro-2,3-dimethylphenyl)-1-(5-oxo-4,5-dihydro-1,3,4-oxadiazol-2-yl)propyl)-2-oxo-2,3-dihydro-1H-benzo[d]imidazole-5-sulfonamide], the IC50 amounted to 830 nM.

In the case of `CC(=O)OC1(C)CCOc2c(S(=O)(=O)N[C@H](c3n[nH]c(=O)o3)[C@H](C)c3c(F)ccc(Br)c3C)ccc(Cl)c21` (some centres unmarked) [Example 167], the IC50 was 80 nM.

`Cc1ccc(F)c([C@@H](C)[C@H](NS(=O)(=O)c2ccc(F)c(S(C)(=O)=O)c2)c2n[nH]c(=O)o2)c1C` [Example 169, 4-fluoro-N-((1S,2R)-2-(6-fluoro-2,3-dimethylphenyl)-1-(5-oxo-4,5-dihydro-1,3,4-oxadiazol-2-yl)propyl)-3-(methylsulfonyl)benzenesulfonamide]: the IC50 was found to be 190 nM.

For the compound `Cc1ccc(S(=O)(=O)N[C@H](c2n[nH]c(=O)o2)[C@H](C)c2c(F)ccc(C)c2C)cc1S(=O)(=O)N1CCCCC1` [Example 171, N-((1S,2R)-2-(6-fluoro-2,3-dimethylphenyl)-1-(5-oxo-4,5-dihydro-1,3,4-oxadiazol-2-yl)propyl)-4-methyl-3-(piperidin-1-ylsulfonyl)benzenesulfonamide], the IC50 is 470 nM.

With `Cc1ccc(F)c([C@@H](C)[C@H](NS(=O)(=O)c2ccc3[nH]c(=O)c(=O)[nH]c3c2)c2n[nH]c(=O)o2)c1C` [Example 172, N-((1S,2R)-2-(6-fluoro-2,3-dimethylphenyl)-1-(5-oxo-4,5-dihydro-1,3,4-oxadiazol-2-yl)propyl)-2,3-dioxo-1,2,3,4-tetrahydroquinoxaline-6-sulfonamide], the 50% inhibitory concentration (IC50) turned out to be 820 nM.

As for `Cc1ccc(F)c([C@@H](C)[C@H](NS(=O)(=O)c2ccc3c(c2)OCCO3)c2n[nH]c(=O)o2)c1C` [Example 173, N-((1S,2R)-2-(6-fluoro-2,3-dimethylphenyl)-1-(5-oxo-4,5-dihydro-1,3,4-oxadiazol-2-yl)propyl)-2,3-dihydrobenzo[b][1,4]dioxin-6-sulfonamide], the IC50 amounted to 130 nM.

On to `Cc1ccc(F)c([C@@H](C)[C@H](NS(=O)(=O)c2ccc3c(c2)C(=O)CCC3)c2n[nH]c(=O)o2)c1C` [Example 174, N-((1S,2R)-2-(6-fluoro-2,3-dimethylphenyl)-1-(5-oxo-4,5-dihydro-1,3,4-oxadiazol-2-yl)propyl)-8-oxo-5,6,7,8-tetrahydronaphthalene-2-sulfonamide], for which the IC50 was 350 nM.
